Test results: patent US10806794B2, “Protease inhibitors having enhanced features” (priority 2008, dated 2020)

Columns and labels:
[1] = Microsomal protein binding by equilibrium dialysis; type: in vitro ADME; settings: human liver microsomes, read-out: Microsomal Protein Binding Fu ± SD
Procedure, shortened: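 Compound at 3 μM final in buffer with or without human liver microsomes, dialysed to equilibrium at 37 °C. Both sides quantified by LC-MS/MS to derive fraction unbound (Fu).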

[2] = Metabolic stability in cynomolgus monkey hepatocytes; type: in vitro ADME; settings: cynomolgus monkey
[3] = Plasma protein binding by equilibrium dialysis, mouse plasma; type: in vitro ADME; settings: read-out: Mouse Plasma Protein Binding Fu ± SD
Procedure: (§1) In assays to estimate binding of test compounds to plasma proteins, test compound solutions (5 μM) are prepared in buffer and species-specific plasma (final DMSO concentration 0.5%). The plasma-containing solution is added to one side of the membrane of an equilibrium dialysis system, and the plasma-free is added to the other side. Dialysis was allowed to reach equilibrium by incubation for two hours at 37° C. The concentration of compound on both sides of the membrane was measured using LC-MS/MS.

[4] = Plasma protein binding by equilibrium dialysis, rat plasma; type: in vitro ADME; settings: read-out: Rat Plasma Protein Binding Fu ± SD
Procedure: as §1

[5] = Plasma protein binding by equilibrium dialysis, monkey plasma; type: in vitro ADME; settings: read-out: Monkey Plasma Protein Binding Fu ± SD
Procedure: as §1

[6] = Metabolic stability in beagle dog hepatocytes; type: in vitro ADME; settings: for hepatocyte CLint at 0.1 μM: read-out: Clint ± SEM
CYP2C9 = CYP2C9 (Homo sapiens (Human), UniProt P11712); assay: biochemical
[7] = Plasma protein binding by equilibrium dialysis, dog plasma; type: in vitro ADME; settings: read-out: Dog Plasma Protein Binding Fu ± SD
Procedure: as §1

[8] = Metabolic stability in Sprague-Dawley rat hepatocytes; type: in vitro ADME; settings: for hepatocyte CLint at 0.1 μM: read-out: Clint ± SEM
hERG = hERG (Homo sapiens (Human), UniProt Q12809); assay: hERG current (IKr) in HEK-293 cells, whole-cell patch clamp; type: cell-based; settings: for IC50: hERG current in HEK-293 cells, whole-cell patch clamp, read-out: IC50 (Block of hERG at 0.1 Hz); for IC50 / inhibition at 10 µM / inhibition at 30 µM / inhibition at 100 µM: 0.1 Hz; for inhibition at 10 µM / inhibition at 30 µM / inhibition at 100 µM: human, HEK-293 cells stably expressing hERG, read-out: Mean % inhibition ± SEM (Block of hERG at 0.1 Hz); for inhibition at 10 µM / inhibition at 30 µM / inhibition at 100 µM / Mean % inhibition ± SEM (Block of hERG at 0.1 Hz): HEK-293 cells
Procedure: Currents were measured using the whole-cell variant of the patch clamp method. Glass pipettes were produced with tip openings of […] for K current recordings. Pipette tip resistance was approximately 1.0 to 2.0 MΩ when filled with K internal solutions (130 mM KCl, 5 mM MgCl2, 10 mM HEPES, 5 mM EGTA, 5 mM ATP-Na2, pH7.2). An Axopatch 1-B amplifier (Axon Instruments, Foster City, Calif.) was used for whole-cell voltage clamping. Voltage clamp pulses were controlled by pClamp software (ver 9.2, Axon Instruments).
After rupture of the cell membrane, current kinetics and amplitudes were allowed to stabilize as the cell was dialyzed with internal solution and paced at 0.1 Hz (−75 mV; 500 msec, +10 mV; 500 msec, −40 mV; typically 2-4 minutes). Currents were considered stable if the currents elicited by a series of voltage pulses given at 0.1 Hz were superimposed. Peak hERG current was measured as the maximum outward deflection of the tail current elicited upon return to −40 mV.
Data are presented in Table 19 as the percent reduction of current amplitude. This was measured as current reduction after a steady-state effect had been reached in the presence of drug relative to current amplitude before drug was introduced (control). Each cell served as its own control.

CEM-SS cells = tested on: CEM-SS cells
Procedure: To evaluate whether conjugated protease inhibitors retain the ability to protect against HIV-1 infection, CEM-SS cells infected with the RF strain of HIV-1 were treated with test compounds for six days, and then cell viability was monitored using the tetrazolium dye XTT. […] A value for Therapeutic Index (TI) was calculated as TC50/EC50.

CYP2D6 = CYP2D6 (Homo sapiens (Human), UniProt P10635); assay: Metabolic stability in CYP2D6-expressing Bactosomes; type: in vitro ADME; settings: 5 μM
Procedure: (§2) Compounds were evaluated for their propensity to act as substrates of individual human cytochrome P450 enzymes using a bacterial membrane preparation co-expressing human NADPH-cytochrome P450 reductase with either human CYP3A4 or CYP2D6 (Bactosomes™ Cypex, Ltd., Dundee, UK). In vitro metabolism studies using Bactosomes™ expressing individual human CYP isoforms monitor the extent to which a test compound is metabolized by a single CYP450 enzyme and allow identification of the CYP isoforms that may be responsible for the metabolism of a test compound. Timecourse analyses of test molecules (5 μM) with CYP2D6- or CYP3A4-expressing Bactosomes™ (100 pmol/mL) are performed in buffer (0.1 M phosphate, pH 7.4) in a final reaction volume of 25 μL. […] Reactions are terminated by the addition of methanol (50 μL) containing internal standard at 0, 5, 15, 30, and 45 minutes.

CYP3A4 = CYP3A4 (Homo sapiens (Human), UniProt P08684); assay: Metabolic stability in CYP3A4-expressing Bactosomes; type: in vitro ADME; settings: 5 μM
Procedure: as §2

[9] = Metabolic stability in cryopreserved human hepatocytes; settings: human, cryopreserved human hepatocytes, CLint ± SEM, human hepatocytes, 3 uM, incubated up to one hour
Procedure, shortened: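 Test compounds at 0.1 μM or 3 μM incubated with cryopreserved human hepatocytes at 0.5×10^6 viable cells/mL. Sampling up to four hours (0.1 μM) or one or two hours (3 μM), methanol quench, then remaining parent measured by cassette LC-MS/MS.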

hERG, sequence (Q12809 whole entry): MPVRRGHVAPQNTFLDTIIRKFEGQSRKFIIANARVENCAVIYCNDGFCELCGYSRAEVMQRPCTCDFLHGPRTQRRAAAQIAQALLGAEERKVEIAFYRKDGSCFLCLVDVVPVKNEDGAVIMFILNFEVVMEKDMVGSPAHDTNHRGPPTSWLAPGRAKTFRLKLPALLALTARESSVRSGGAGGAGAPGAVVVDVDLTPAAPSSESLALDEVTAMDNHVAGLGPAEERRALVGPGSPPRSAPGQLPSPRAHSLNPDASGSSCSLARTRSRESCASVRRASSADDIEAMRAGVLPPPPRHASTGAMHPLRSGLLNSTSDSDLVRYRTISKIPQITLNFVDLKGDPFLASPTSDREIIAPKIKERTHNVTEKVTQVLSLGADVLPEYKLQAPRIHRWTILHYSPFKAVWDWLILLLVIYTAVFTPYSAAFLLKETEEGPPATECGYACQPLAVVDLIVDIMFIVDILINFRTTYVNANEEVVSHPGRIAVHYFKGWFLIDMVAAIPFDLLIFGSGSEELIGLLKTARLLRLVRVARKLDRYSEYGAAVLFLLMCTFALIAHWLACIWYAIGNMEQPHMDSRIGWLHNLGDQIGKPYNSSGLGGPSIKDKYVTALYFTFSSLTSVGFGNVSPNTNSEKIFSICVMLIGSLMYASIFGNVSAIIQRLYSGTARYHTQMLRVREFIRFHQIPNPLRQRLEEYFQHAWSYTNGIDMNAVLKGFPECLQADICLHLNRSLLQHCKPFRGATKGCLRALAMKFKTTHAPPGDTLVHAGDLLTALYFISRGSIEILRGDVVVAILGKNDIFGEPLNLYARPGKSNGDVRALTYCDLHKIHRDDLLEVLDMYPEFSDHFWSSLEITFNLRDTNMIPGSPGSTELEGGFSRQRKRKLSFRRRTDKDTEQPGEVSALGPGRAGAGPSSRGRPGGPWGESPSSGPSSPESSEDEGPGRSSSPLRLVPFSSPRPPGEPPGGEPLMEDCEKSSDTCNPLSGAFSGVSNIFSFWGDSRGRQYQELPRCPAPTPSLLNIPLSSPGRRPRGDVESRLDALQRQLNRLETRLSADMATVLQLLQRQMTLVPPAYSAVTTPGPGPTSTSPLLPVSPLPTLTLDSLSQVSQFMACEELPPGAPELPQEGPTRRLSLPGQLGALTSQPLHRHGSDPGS
CYP3A4, sequence (P08684 whole entry): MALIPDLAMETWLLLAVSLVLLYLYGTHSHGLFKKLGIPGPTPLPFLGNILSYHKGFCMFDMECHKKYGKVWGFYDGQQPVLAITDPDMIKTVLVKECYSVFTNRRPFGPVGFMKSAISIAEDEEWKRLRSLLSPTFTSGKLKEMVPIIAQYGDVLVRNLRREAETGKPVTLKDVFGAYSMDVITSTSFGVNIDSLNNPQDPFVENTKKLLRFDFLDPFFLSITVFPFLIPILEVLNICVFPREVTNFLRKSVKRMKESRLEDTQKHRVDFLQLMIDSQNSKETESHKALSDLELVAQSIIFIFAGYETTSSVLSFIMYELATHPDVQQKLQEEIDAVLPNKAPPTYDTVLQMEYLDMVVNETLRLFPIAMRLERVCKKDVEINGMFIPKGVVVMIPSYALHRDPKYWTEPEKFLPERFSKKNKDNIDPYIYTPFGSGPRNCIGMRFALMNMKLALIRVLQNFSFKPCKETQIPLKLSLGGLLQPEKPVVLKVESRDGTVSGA
CYP2D6, sequence (P10635 whole entry, canonical isoform): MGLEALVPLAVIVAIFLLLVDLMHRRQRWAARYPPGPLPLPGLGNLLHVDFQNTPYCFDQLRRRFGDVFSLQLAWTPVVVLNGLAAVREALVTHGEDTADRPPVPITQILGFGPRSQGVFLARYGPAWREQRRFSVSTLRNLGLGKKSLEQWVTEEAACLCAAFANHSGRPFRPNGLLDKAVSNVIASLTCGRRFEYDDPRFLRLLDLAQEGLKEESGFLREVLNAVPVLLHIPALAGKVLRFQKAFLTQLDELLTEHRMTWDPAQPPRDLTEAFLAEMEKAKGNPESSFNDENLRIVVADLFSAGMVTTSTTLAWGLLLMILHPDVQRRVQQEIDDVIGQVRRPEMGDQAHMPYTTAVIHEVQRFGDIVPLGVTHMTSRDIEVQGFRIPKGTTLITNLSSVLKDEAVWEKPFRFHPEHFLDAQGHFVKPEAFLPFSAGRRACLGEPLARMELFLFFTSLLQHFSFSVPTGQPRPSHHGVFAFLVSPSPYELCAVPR
CYP2C9, sequence (P11712 whole entry): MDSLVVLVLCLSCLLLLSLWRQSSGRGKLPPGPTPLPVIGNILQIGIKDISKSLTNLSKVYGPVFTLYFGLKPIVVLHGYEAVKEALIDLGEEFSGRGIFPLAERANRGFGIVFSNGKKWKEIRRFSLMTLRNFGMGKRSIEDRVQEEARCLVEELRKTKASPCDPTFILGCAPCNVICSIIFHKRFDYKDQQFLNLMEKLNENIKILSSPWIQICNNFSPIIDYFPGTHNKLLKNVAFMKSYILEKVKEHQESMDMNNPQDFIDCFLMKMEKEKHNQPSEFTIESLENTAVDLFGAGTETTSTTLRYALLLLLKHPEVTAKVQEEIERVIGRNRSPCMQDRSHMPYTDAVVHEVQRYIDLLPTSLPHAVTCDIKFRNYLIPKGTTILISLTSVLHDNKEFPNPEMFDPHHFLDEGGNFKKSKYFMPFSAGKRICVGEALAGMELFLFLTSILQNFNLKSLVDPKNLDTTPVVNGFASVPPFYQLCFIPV

Question: What does the source list for `COCCOCCOCCOC(=O)NC(C(=O)NC(Cc1ccccc1)C(O)CN(Cc1ccc(-c2ccccn2)cc1)NC(=O)C(NC(=O)OC)C(C)(C)C)C(C)(C)C` (stereo not drawn) [mono-mPEG3-Atazanavir, {1-[N′-[2-Hydroxy-3-(2-{2-[2-(2-methoxy-ethoxy)-ethoxy]-ethoxycarbonylamino}-3,3-dimethyl-butyrylamino)-4-phenyl-butyl]-N′-(4-pyridin-2-yl-benzyl)-hydrazinocarbonyl]-2,2-dimethyl-propyl}-carbamic Acid Methyl Ester]?
Answer: fraction unbound at 3 μM [1]: 0.852 ± 0.0495; half-life at 0.1 μM [2]: 1.66 h; hepatocyte CLint at 0.1 μM ([2]; read-out: Clint ± SEM): 13.9 ± 0.904 µL/min/1e6 cells; fraction unbound at 2 h, 5 μM [3]: 0.159 ± 0.0161; fraction unbound at 2 h, 5 μM [4]: 0.138 ± 0.0104; fraction unbound at 2 h, 5 μM [5]: 0.204 ± 0.196; half-life at 0.1 μM [6]: 1.43 h; hepatocyte CLint at 0.1 μM [6]: 16.1 ± 0.000914 µL/min/1e6 cells; IC50 (CYP2C9): 24.6 µM; fraction unbound at 2 h, 5 μM [7]: 0.252 ± 0.0397; half-life at 0.1 μM [8]: 1.95 h; hepatocyte CLint at 0.1 μM [8]: 11.9 ± 0.00223 µL/min/1e6 cells; IC50 (hERG): 88.3 µM; inhibition at 10 µM (hERG; 10 μM): 5.4 ± 0.6%; inhibition at 30 µM (hERG; 30 μM): 23.7 ± 3.7%; inhibition at 100 µM (hERG; 100 μM): 53.1 ± 2.6%

Question: What does the source list for `COCCOCCOCCOCCOCCOCCOC(=O)NC(C(=O)NC(Cc1ccccc1)C(O)CN(Cc1ccc(-c2ccccn2)cc1)NC(=O)C(NC(=O)OC)C(C)(C)C)C(C)(C)C` (stereo not drawn) [mono-mPEG6-Atazanavir]?
Answer: Mean % inhibition ± SEM (Block of hERG at 0.1 Hz) (hERG; 10 μM): 4.4 ± 0.4%; Mean % inhibition ± SEM (Block of hERG at 0.1 Hz) (hERG; 30 μM): 12.7 ± 1.3%; Mean % inhibition ± SEM (Block of hERG at 0.1 Hz) (hERG; 100 μM): 26.0 ± 1.0%; IC50 (hERG): > 100 µM

Question: With `COCCOCCOCCOCCOCCOC(=O)NC(C(=O)NC(Cc1ccccc1)C(O)CN(Cc1ccc(-c2ccccn2)cc1)NC(=O)C(NC(=O)OC)C(C)(C)C)C(C)(C)C` (stereo not drawn) [mono-mPEG5-Atazanavir] as the compound, how does the “Mean % inhibition ± SEM (Block of hERG at 0.1 Hz)” value (shortened to “Mean % inhibition ± SEM”) (hERG; 10 μM) read?
Answer: 11.2 ± 1.4%

Question: What about the “Mean % inhibition ± SEM” value (hERG; 30 μM) of the same compound?
Answer: 26.3 ± 2.9%

Question: And the “Mean % inhibition ± SEM” value (hERG; 100 μM)?
Answer: 43.8 ± 3.9%

Question: What about the IC50 (hERG) of the same compound?
Answer: > 100 µM

Question: Which “CEM-SS TC50 ± SD” value (CEM-SS cells) does the source give for `COCCOC(=O)NC(C(=O)NC(Cc1ccccc1)C(O)CN(Cc1ccc(-c2ccccn2)cc1)NC(=O)C(NC(=O)OC)C(C)(C)C)C(C)(C)C` (stereo not drawn) [mono-mPEG1-Atazanavir] here?
Answer: 49.1 ± 6.4 µM

Question: With `COCCOCCOCCOCCOCCOCCOCCNc1ccc(S(=O)(=O)N(CC(C)C)CC(O)[C@H](Cc2ccccc2)NC(=O)O[C@H]2CO[C@H]3OCC[C@H]32)cc1` (stereo partly drawn) [mPEG7-N-Darunavir] as the compound, how does the “2D6 t1/2 ± SEM” value (CYP2D6) read?
Answer: 0.485 ± 0.0325 h

Question: And the “3A4 t1/2 ± SEM” value (CYP3A4)?
Answer: 0.232 ± 0.032 h

Question: For `COCCOCCOCCOCCOCCNc1ccc(S(=O)(=O)N(CC(C)C)CC(O)[C@H](Cc2ccccc2)NC(=O)O[C@H]2CO[C@H]3OCC[C@H]32)cc1` (stereo partly drawn) [mPEG5-N-Darunavir], which “2D6 t1/2 ± SEM” value (CYP2D6) is on record?
Answer: 0.827 ± 0.0438 h

Question: What about the “3A4 t1/2 ± SEM” value (CYP3A4) of the same compound?
Answer: 0.623 ± 0.0797 h

Question: Which fraction unbound at 3 μM [1] does the source give for `COC(=O)N[C@H](C(=O)N[C@@H](Cc1ccccc1)[C@@H](O)CN(Cc1ccc(-c2ccccn2)cc1)NC(=O)[C@@H](NC(=O)OC)C(C)(C)C)C(C)(C)C` [Atazanavir, reference compound] here?
Answer: 0.846 ± 0.0308

Question: What about the fraction unbound at 2 h, 5 μM [3] of the same compound?
Answer: 0.0574 ± 0.00286

Question: What about the fraction unbound at 2 h, 5 μM [4] of the same compound?
Answer: 0.079 ± 0.00684

Question: What about the fraction unbound at 2 h, 5 μM [5] of the same compound?
Answer: 0.201 ± 0.0183

Question: And the hepatocyte CLint at 3 μM [9]?
Answer: 5.15 ± 1.13 µL/min/1e6 cells

Question: What about the half-life at 0.1 μM [6] of the same compound?
Answer: 12.6 h

Question: And the hepatocyte CLint at 0.1 μM [6]?
Answer: 1.83 ± 0.000561 µL/min/1e6 cells

Question: What about the IC50 (CYP2C9) of the same compound?
Answer: 10.3 µM

Question: What about the fraction unbound at 2 h, 5 μM [7] of the same compound?
Answer: 0.139 ± 0.0167

Question: And the half-life at 0.1 μM [8]?
Answer: 0.228 h

Question: What about the hepatocyte CLint at 0.1 μM [8] of the same compound?
Answer: 101 ± 0.00802 µL/min/1e6 cells

Question: And the IC50 (hERG)?
Answer: 63.9 µM

Question: What about the inhibition at 10 µM (hERG; 10 μM) of the same compound?
Answer: 15.6 ± 1.9%

Question: What about the inhibition at 30 µM (hERG; 30 μM) of the same compound?
Answer: 32.5 ± 3.7%

Question: What about the inhibition at 100 µM (hERG; 100 μM) of the same compound?
Answer: 60.5 ± 2.5%

Question: For `COCCOCCOCCOCCOCCOCCOCCOC(=O)NC(C(=O)NC(Cc1ccccc1)C(O)CN(Cc1ccc(-c2ccccn2)cc1)NC(=O)C(NC(=O)OC)C(C)(C)C)C(C)(C)C` (stereo not drawn) [mono-mPEG7-Atazanavir], which “CEM-SS TC50 ± SD” value (CEM-SS cells) is on record?
Answer: 133.8 ± 24.5 µM
